Results from publication PMC7331992, “Targeting the oral plaque microbiome with immobilized anti-biofilm peptides at tooth-restoration interfaces” (PLoS ONE, 2020).
Square brackets hold non-standard residues; d marks the D form. Ends that are not written are not given here. Peptide text beside a SMILES is read from it.

How the values were obtained:
[1] = test system: plaque biofilm along dentin-composite interface; assay: Multiphoton live/dead bioimaging of plaque biofilm along dentin-composite interfacial gap; type: cell-based, plaque bacteria (human subject); bovine dentin; details: D-GL13K-coated dentin
Source text: Roots of bovine teeth were used to prepare restored dentin-composite discs (Fig 1). After the crowns and apical thirds of each tooth were cut off, the root canals were enlarged to 2 mm in diameter, using 1.9-mm diameter fiber post drills (RelyX™ Fiber Post, 3M, St. Paul, MN, USA). The outer surface of the roots was trimmed down to 5 mm in diameter using a lathe to remove cementum and external layers of dentin. The obtained dentin tubes (5 mm in outer diameter and 2 mm in inner diameter) were water rinsed and stored in 0.5 chloramine T solution at 4 °C until the restorative procedures were performed. […]
Multiphoton images were acquired in a Multiphoton upright microscope equipped with an A1R laser scan head (Nikon FN1, Tokyo, Japan). […] Multiphoton excitation fluorescence was collected in the epi direction in the green (470–550) and orange-red (570–640) channels. […] Images were compiled and analyzed with NIS Elements software (Version 4.11.0, Nikon, Tokyo, Japan).
Quantification of red and green cells was done by standard co-localization analysis using Fiji image processing package. The percentage of red cells, which is usually associated to dead cells was calculated as: deadcells%=(totalvolumeofredcells/totalvolumeofcells)x100

#311 plaque sample = details: cultures of highly adherent #311 plaque sample; several batches; n = 3; Fig 2C; cited from earlier work
Protocol: (§1) MICs of D-GL13K against cultures of all 10 plaque biofilm samples were in the range 1–4 μg/ml (Fig 2A). […] Potency of the rest of AAMPs candidates was tested against cultures of the highly adherent #311 sample. […] The controls, scrambled amino acid versions of D- ...

[2] = test system: plaque biofilm microbial community; assay: 16S rRNA gene sequencing of plaque biofilm community on AAMPs-coated HA discs; type: cell-based, plaque bacteria (human subject)
Protocol: PMA treatment was conducted for selective detection of viable bacteria. Prior to DNA extraction, the collected 1ml of bacterial cells was sub-divided into 0.5ml with PMA and the other 0.5ml without PMA treatment for each sample for fulfilling a pairs-matched statistical design (S1 Fig in S1 File). PMA was added to the assigned samples for a final concentration of 50 μM. The samples were incubated in the dark for 10 minutes on a shaker at room temperature. The samples were exposed to a PMA-Lite LED photolysis device light (Biotium, Fremont, CA, USA) to cross-link PMA to DNA for 15 minutes. Cells were pelleted by centrifuging at 5000x g for 10 minutes in preparation for genomic DNA extraction.
Genomic DNA was extracted from all samples; i.e., PMA and non-PMA treated bacteria. The protocol amended from Epicentre MasterPure™ DNA Purification Kit and Epicentre MasterPure™ Gram Positive DNA Purification Kit was followed (http://homings.forsyth.org/DNA%20Isolation%20Protocol.pdf, last access 03/31/2020).
The extracted DNA was submitted to the University of Minnesota Genomics Center for dual-indexed 16S rRNA gene amplicon sequencing using the V3-V4 region on the Illumina MiSeq platform 300PE.
Primers where removed with FilterandTrim, paired reads were merged with mergePairs, Bimeras where removed in with removeBimeraDenovo, and Silva version 132 was used for taxonomy identification. Sequences with a length < 251 and > 255 were removed as well as sequences with a total read count across all samples equal to 1. Further analysis of the ASV table was performed in R with the vegan, reshape2, ggplot2, grid, gridExtra, plyr, dplyr packages. The alpha diversity indices of Shannon, Simpson, Inverse Simpson (InvSympson) were calculated at 97% identity. Beta diversity analysis was performed by principal coordinates analysis (PCoA) based on Bray-Curtis distances at the Operational Taxonomic Unit (OTU) level. […]

[3] = test system: supragingival dental plaque samples from 10 high caries risk subjects; type: cell-based, plaque bacteria (human subjects); details: 24 h
Source text: After a written informed consent was obtained from all participants, supragingival dental plaque samples from 10 high caries risk subjects were collected from either the occlusal or buccal margin of existing restorations at the University of Minnesota (Institutional Review Board #1403M48865). Each subject was examined for a formal caries risk assessment (CAMBRA) which classifies the caries risk status into 3 categories (low, moderate, high) considering a wide-range of biological predisposing factors and the protective factors, 8 factors each, in addition to the comprehensive clinical examination. All subjects had experienced active carious lesions and were still at high risk for future caries; otherwise, they were in good general health and had not taken antibiotics within 3 months of plaque sampling.
All dental plaque samples were collected using a sterile sickle scaler, and each sample was immediately deposited into a vial containing 1 ml pre-reduced anaerobic transfer medium (Anaerobe Systems, Morgan Hill, CA, USA). […] After 24 h of peptide treatment, absorbance at 600 nm was measured using a microtiter plate reader (Bio-Tek Instruments, Winooski, VT, USA). Plaque sample #311 was challenging in the planktonic state and, additionally, it formed the highest adherent biofilm using the Crystal Violet assay as measured by Dr. Robert S. Jones lab (data not shown). […]

#311 plaque biofilm [4] = details: Fig 2B, cited from earlier work
Protocol: as §1, with “However, biofilms show increased resistance to antimicrobial agents than suspension cultures.” for “The controls, scrambled amino acid versions of D- ...”

#311 plaque biofilm [5] = assay: Live/dead viability assay of plaque biofilms on peptide-coated HA discs; type: cell-based, plaque bacteria (human subject)
Protocol: Hydroxyapatite (HA) discs (9.65 mm diameter by 1.52 mm thickness; Clarkson Chromatography Products, Williamsport, PA, USA) were sterilized by autoclaving to be used as plaque biofilm substrates. Both sides of each disc were etched by 32% phosphoric acid gel (Scotchbond™ Universal Etchant, 3M, St. Paul, MN, USA) for 15 s followed by 10 s water-rinse and 10 s air-dry. The discs were coated, incubated with a thin layer of peptide solution at 37 °C for 1 min, by 1 mg/ml of either D-GL13K or 1018 or DJK2 followed by 60 s air-dry. The control discs were etched, but were not coated with peptides. All samples were subject to ultrasonication in water bath for 15 min to remove any unattached peptides. X-ray Photoelectron Spectroscopy (XPS; SSX-100, Surface Science Laboratories; Al Kα X-ray, 1 mm spot-size, 35° take-off angle) was used to detect the atomic composition of the coated surfaces. […]
Working solution of fluorescent stains (L7012, LIVE/DEAD BacLight Bacterial Viability Kit, ThermoFisher Scientific, Waltham, MA, USA) was prepared by adding 3 μl of SYTO® 9 (live cell stain) and 3 μl of Propidium iodide (PI, dead cell stain) to 1 ml of sterilized Milli-Q® ultrapure water. […] The regrown biofilms were re-assessed using the same Live/Dead assay.

Compound	antibiofilm potency on 18-day-old interfacial plaque biofilm ([1]; 18-day-old biofilm, 3D rendering)	Percentage of dead cells ([1]; interfacial 9-day-old biofilm, average ± SD, n=6, control 31.5%± 8%, p = 0.018)	MIC (#311 plaque sample) [µg/mL]	bacterial community richness (Shannon index) compared to controls ([2]; 48-h biofilm on coated HA discs, genus level)	abundance of less abundant taxa Actinomyces and Gemella compared to controls ([2]; ANCOM, coated HA discs)	number and relative abundance of Streptococcus and Veillonella combined versus controls ([2]; Shannon, Simpson, InvSimpson indices, coated HA discs)	MIC [3] [µg/mL]	inhibition of #311 plaque biofilm (#311 plaque biofilm [4]; 25 μg/ml D-GL13K, 6-day-old biofilm)	suppression of biofilm biovolume compared to controls (#311 plaque biofilm [4]; highly adherent plaque biofilm) [%]	live/dead assay, effect on bacteria (#311 plaque biofilm [5]; D-GL13K-coated HA discs, 48 h biofilm growth)	antibiofilm activity of challenged coatings (#311 plaque biofilm [5]; coating challenged by 45 min ultrasonication or 45 min 30% acetic acid (pH 2.4), biofilms regrown 5 and 15 days)
CC[C@@H](C)[C@@H](NC(=O)[C@@H](CCCCN)NC(=O)CN)C(=O)N[C@@H](C(=O)N[C@H](CCCCN)C(=O)N[C@H](CC(C)C)C(=O)N[C@H](CCCCN)C(=O)N[C@H](C)C(=O)N[C@H](CO)C(=O)N[C@H](CC(C)C)C(=O)N[C@H](CCCCN)C(=O)N[C@H](CC(C)C)C(=O)N[C@H](CC(C)C)C(N)=O)[C@H](C)CC [D-GL13K] (H-G[dK][dI][dI][dK][dL][dK][dA][dS][dL][dK][dL][dL]-NH2; N-terminus and C-terminus assumed)	maintained their antibiofilm potency	60% ± 10%	1 to 2	significantly reduced	significant reduction	significant reduction	1 to 4	around 4 fold	> 70	uniform and marked loss of the integrity of bacterial membranes	sustained antibiofilm activity
L-GL13K: antimicrobial amphipathic peptide GL13K, L-amino acids (GKIIKLKASLKLL; not fully specified (C-terminus))	–	–	8	–	–	–	–	–	–	–	–
